Reference: patent US20050209336A1, “EP2 receptor agonists” (priority 2003, published 2005)

Tested on: interferon gamma release by lymphocytes
Assay: Lymphocyte assay: interferon gamma release
Assay type: cell-based, human
Settings: two donors (FIG. 11)
Text: Lymphocytes are mononuclear leukocytes, which participate in specific immune responses to foreign antigens and in the manifestation of auto-immune diseases. T lymphocytes produce IL-2, a key factor for lymphocyte activation and proliferation, in response to antigen stimulation via the CD3-T cell receptor complex and the pathway involved in this response is the NF-AT. […] A lymphocyte assay was designed to model this response and to determine the effect of test compound on IL-2 production by anti-CD3-stimulated T cells isolated from peripheral blood. This assay uses a sub-optimal dose of an anti-CD3 monoclonal antibody (OKT3, 25 ng/ml) immobilised to a 96-well plate to stimulate a T cell response. The level of IL-2 released into the cell culture supernatants was quantified using a standard sandwich ELISA. Similarly, other cytokines such as TNFα and IFN-γ can also be measured in the same assay. […]
Lymphocytes were then seeded to a 96-well plate pre-coated with anti-CD3 monoclonal antibody (OKT3) at 25 ng/ml and immediately, the test compounds (Peak 1, mixture 1 acid; Peak 1, mixture 2 acid; AH-13205 racemate; PGE2) in appropriate dilutions were added to corresponding wells according to the experimental design. […] The levels of IFN-γ was assessed by using the ProteoPlex 16 well human cytokine array assay kit according to the manufacturer's instruction.

SMILES: CCCCC[C@H](O)c1ccc([C@H]2CCC(=O)[C@@H]2CCCCCCC(=O)O)cc1 (single isomer, unassigned) [Peak 1, Mixture 1 acid]
- interferon gamma release: concentration-dependently inhibit interferon gamma release
